What is called Ki is a dissociation constant, usually derived from enzyme kinetics or from competition with a known ligand.

The target of assay [1] is alpha-1. Description: radioligand binding assay, adrenergic alpha-1 receptor, [3H]prazosin. Particulars: porcine cortical membranes, mean of two to five experiments in triplicate, read-out: Ki alpha1. As for the experimental part: (§1) The investigation of receptor binding to the serotonin and adrenergic receptors was done according to a published procedure (Heindl, C. et al., Tetrahedron: Asymmetry (2003), 14, 3141-3152). In detail, for the determination of the binding properties to serotonin receptors membrane preparations from porcine cortex was incubated with the 5-HT1A selective radioligand [^3H]WAY 100635 or with the 5-HT2 selective compound [^3H]ketanserin. The measurement of alpha-1 and alpha-2 receptor binding was achieved when utilizing porcine cortical membranes and the selective radioligands [^3H]prazosin (for alpha-1) and [^3H]RX821002 in an assay similar to that described above.
(§2) The results of the binding experiments are summarized in Table 1 as mean values of two to five individual experiments each done in triplicate and expressed as Ki values in nM.

Assay [2] has as its target T1, 5-HT1A (Sus scrofa, UniProt A0A4X1UTF5).
T1 construct: membrane preparations from porcine cortex; from tissue; host or cells: porcine cortex
T1 sequence (A0A4X1UTF5 1-422): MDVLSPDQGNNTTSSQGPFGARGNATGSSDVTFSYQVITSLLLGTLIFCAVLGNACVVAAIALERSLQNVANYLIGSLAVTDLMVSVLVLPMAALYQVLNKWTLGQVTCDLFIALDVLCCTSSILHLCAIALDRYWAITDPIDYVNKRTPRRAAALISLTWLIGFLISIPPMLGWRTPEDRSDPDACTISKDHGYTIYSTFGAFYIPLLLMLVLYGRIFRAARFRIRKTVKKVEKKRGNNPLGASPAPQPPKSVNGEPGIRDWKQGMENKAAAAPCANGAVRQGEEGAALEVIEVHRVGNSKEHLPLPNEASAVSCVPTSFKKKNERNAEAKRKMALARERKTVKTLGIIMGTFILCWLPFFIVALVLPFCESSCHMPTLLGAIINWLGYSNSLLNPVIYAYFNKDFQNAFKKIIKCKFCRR
Description: radioligand binding assay, serotonin 5-HT1A receptor, [3H]WAY 100635. As for the experimental part:
as §1, §2

Assay [3] addresses T2, 5-HT2 (Sus scrofa, UniProt P50129).
T2 construct: membrane preparations from porcine cortex; from tissue; host or cells: porcine cortex
Briefly: radioligand binding assay, serotonin 5-HT2 receptor, [3H]ketanserin. On the set-up: species or system porcine.

Assay [4] deals with human D3 (Homo sapiens, UniProt P35462). Description: radioligand binding assay, dopamine D3 receptor, [3H]spiperone. As for the experimental part: (§3) These experiments have been done according to methods which are described in literature (Hübner, H. et al., J. Med. Chem. (2000), 43, 7562). For the determination of binding affinity to the receptors of the dopamine D2 family membranes were established carrying the human D2long, D2short, D3 or D4.4 receptor subtype stably expressed in Chinese hamster ovary cell lines. In principle, the binding experiments started when incubating an appropriate amount of membrane with the radioligand [^3H]spiperone and the particular test compounds used in a wide range of different concentrations from subnanomolar up to micromolar ones.

Assay [5] concerns the target T3, dopamine D1 receptor (Sus scrofa, UniProt P50130).
T3 construct: native membrane preparations from porcine striatum; from tissue; host or cells: porcine striatum
Briefly: radioligand binding assay, dopamine D1 receptor, [3H]SCH 23390.
Description: as §3, with “Biological activity of the compounds has been determined in radioligand binding assays. These” for “These”, “ones. In the same way, binding affinities of the test compounds to the dopamine D1 receptor were determined when using native membrane preparations from porcine striatum and the D1 selective radioligand [^3H]SCH 23390.” for “ones.”
as §2

Assay [6] deals with T4, human D4.4 (Homo sapiens, UniProt P21917).
T4 sequence (P21917 1-419): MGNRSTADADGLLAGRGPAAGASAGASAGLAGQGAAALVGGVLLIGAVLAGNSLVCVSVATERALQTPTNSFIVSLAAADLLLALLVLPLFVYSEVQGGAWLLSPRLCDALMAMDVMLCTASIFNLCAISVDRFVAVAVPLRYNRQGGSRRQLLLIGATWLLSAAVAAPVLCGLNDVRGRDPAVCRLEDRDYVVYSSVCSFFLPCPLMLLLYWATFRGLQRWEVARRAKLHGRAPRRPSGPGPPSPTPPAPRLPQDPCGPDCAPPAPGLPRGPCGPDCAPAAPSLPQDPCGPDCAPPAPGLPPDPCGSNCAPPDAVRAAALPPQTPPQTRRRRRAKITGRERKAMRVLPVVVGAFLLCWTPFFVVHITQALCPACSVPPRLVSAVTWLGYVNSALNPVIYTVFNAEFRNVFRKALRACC
Briefly: radioligand binding assay, dopamine D4.4 receptor, [3H]spiperone.
Description: as §3, with “Biological activity of the compounds has been determined in radioligand binding assays. These” for “These”, “ones. In the same way, binding affinities of the test compounds to the dopamine D1 receptor were determined when using native membrane preparations from porcine striatum and the D1 selective radioligand [^3H]SCH 23390.” for “ones.”
as §2

Assay [7] deals with human D2long, D2short (Homo sapiens, UniProt P14416). Description: biochemical. Format: binding. As for the experimental part:
as §3

The mark [8] stands for this setting: porcine cortex membranes, mean of two to five experiments in triplicate, read-out: Ki 5-HT1a.
The mark [9] stands for this setting: porcine cortex membranes, [3H]ketanserin, mean of two to five experiments in triplicate, read-out: Ki 5-HT2.
[10] abbreviates: CHO cell membranes, mean of two to five experiments in triplicate, read-out: Ki D3.
Setting [11] is: porcine striatum membranes, mean of two to five experiments in triplicate, read-out: Ki D1.
[12] abbreviates: CHO cell membranes, mean of two to five experiments in triplicate, read-out: Ki D4.4.
The mark [13] stands for this setting: CHO cell membranes, [3H]spiperone; mean of two to five experiments in triplicate; read-out: Ki D2.

Where two headings read alike, the source gives them in different places. Bounds are passed on as bounds.

Chain of human D3 (P35462 whole entry): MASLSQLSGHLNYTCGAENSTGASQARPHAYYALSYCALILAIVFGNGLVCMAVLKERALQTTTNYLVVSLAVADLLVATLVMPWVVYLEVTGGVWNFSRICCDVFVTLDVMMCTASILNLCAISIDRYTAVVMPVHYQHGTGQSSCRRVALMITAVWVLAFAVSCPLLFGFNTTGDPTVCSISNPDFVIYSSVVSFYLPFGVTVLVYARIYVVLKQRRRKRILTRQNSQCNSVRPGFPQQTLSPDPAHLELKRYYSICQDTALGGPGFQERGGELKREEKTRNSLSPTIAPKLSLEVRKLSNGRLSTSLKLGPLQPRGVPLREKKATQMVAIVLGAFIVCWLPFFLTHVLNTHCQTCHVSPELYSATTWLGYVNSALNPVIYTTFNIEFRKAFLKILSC
Chain of human D2long, D2short (P14416 whole entry): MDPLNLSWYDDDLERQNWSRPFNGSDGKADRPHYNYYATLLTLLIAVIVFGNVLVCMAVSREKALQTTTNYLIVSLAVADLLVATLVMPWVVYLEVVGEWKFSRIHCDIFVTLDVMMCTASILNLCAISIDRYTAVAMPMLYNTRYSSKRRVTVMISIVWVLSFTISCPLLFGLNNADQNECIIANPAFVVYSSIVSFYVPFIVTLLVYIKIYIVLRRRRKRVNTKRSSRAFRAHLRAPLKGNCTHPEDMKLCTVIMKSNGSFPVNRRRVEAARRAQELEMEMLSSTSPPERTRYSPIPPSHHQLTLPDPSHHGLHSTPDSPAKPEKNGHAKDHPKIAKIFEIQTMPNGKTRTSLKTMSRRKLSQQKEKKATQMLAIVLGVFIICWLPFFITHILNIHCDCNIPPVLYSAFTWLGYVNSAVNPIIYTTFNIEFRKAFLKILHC
T3 sequence (P50130 whole entry): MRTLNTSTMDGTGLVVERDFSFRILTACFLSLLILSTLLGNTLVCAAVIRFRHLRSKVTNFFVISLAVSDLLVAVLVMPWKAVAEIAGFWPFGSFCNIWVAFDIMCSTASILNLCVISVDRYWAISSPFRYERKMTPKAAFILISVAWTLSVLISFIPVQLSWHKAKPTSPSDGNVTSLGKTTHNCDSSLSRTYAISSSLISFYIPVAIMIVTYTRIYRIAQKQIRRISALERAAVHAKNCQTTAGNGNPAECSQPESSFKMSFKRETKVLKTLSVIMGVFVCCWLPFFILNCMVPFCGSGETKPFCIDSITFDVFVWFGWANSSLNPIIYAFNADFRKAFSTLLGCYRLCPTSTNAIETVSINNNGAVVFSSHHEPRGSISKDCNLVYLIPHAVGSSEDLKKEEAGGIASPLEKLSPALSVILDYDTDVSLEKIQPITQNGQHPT
T2 sequence (P50129 whole entry): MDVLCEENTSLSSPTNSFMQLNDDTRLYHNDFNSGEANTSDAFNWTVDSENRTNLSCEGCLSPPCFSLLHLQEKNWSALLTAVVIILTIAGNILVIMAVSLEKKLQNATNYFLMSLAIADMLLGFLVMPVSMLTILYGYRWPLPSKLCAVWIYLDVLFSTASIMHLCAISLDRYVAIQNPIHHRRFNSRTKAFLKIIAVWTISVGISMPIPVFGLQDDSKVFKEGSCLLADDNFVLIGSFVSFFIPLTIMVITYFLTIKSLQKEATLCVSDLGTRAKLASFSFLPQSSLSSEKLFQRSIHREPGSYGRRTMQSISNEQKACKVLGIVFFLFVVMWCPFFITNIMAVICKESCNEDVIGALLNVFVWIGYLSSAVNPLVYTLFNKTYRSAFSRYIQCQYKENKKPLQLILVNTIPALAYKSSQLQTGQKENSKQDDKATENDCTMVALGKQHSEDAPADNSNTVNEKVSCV

As for `Cc1ccc(CNCC2(F)CCN(C(=O)c3csc4ccccc34)CC2)nc1` [Example E25, Benzo[b]thien-3-yl-[4-fluoro-4-[[(5-methylpyridin-2-ylmethyl)amino]methyl]piperidin-1-yl]-methanone], the Ki in assay [1] was 0.501 to 5 µM; in assay [2] (setting [8]) it was < 0.05 µM; in assay [3] (setting [9]), > 5 µM; in assay [4] (setting [10]), > 5 µM; in assay [5] (setting [11]), > 5 µM; in assay [6] (setting [12]) it was 0.05 to 0.5 µM. Moreover, the Ki in assay [7] (setting [13]) is > 5 µM.
In the case of `CSc1ccc(C(=O)N2CCC(F)(CNCc3ccc(C)cn3)CC2)s1` [Example E12, [4-Fluoro-4-[[(5-methylpyridin-2-ylmethyl)amino]methyl]piperidin-1-yl]-5-mothylthiothien-2-yl-methanone], the Ki in assay [1] was 0.501 to 5 µM; in assay [2] (setting [8]) it was < 0.05 µM; in assay [3] it was > 5 µM; in assay [4] (setting [10]), > 5 µM; in assay [5] (setting [11]) it was > 5 µM; in assay [6] (setting [12]), 0.501 to 5 µM. Besides, in assay [7] (setting [13]), the Ki was > 5 µM.
In the case of `Cc1ccc(CNCC2(F)CCN(C(=O)c3coc(Br)c3)CC2)nc1` [Example E34, 5-Bromofuran-3-yl-[4.fluoro-4-[[(5-methylpyridin-2-ylmethyl)amino]methyl]piperidin-1-yl]-methanone], the Ki in assay [1] is 0.501 to 5 µM; in assay [2] (setting [8]) it was < 0.05 µM; in assay [3], > 5 µM; in assay [4] (setting [10]), > 5 µM; in assay [5] (setting [11]), > 5 µM; in assay [6] (setting [12]) it was 0.501 to 5 µM. The Ki in assay [7] (setting [13]) was > 5 µM.
`Cc1ccc(CNCC2(F)CCN(C(=O)c3cc4ccccn4n3)CC2)nc1` [Example E42]: the Ki in assay [1] was > 5 µM; in assay [2] (setting [8]), 0.05 to 0.5 µM; in assay [3], > 5 µM; in assay [4] (setting [10]), > 5 µM; in assay [5] (setting [11]) it was > 5 µM; in assay [6] (setting [12]), > 5 µM. Also, the Ki in assay [7] (setting [13]) is > 5 µM.
`Cc1ccc(CNCC2(F)CCN(C(=O)c3cc(Br)c(Br)s3)CC2)nc1` [Example E8, 4,5-Dibromothien-2-yl-[4-fluoro-4-[[(5-methylpyridin-2-ylmethyl)amino]methyl]-piperidin-1-yl]-methanone]: the inhibition constant Ki is < 0.05 µM in assay [2] (setting [8]) and > 5 µM in assay [3] (setting [9]).
Taken in the same sequence, the figures for `Cc1ccc(CNCC2(F)CCN(C(=O)c3cc(Br)c(Br)o3)CC2)nc1` [Example E32, 4,5-Dibromofuran-2-yl-[4-fluoro-4-[[(5-mothylpyridin-2-ylmethyl)amino]methyl]piperidin-1-yl]-methanone] were < 0.05 µM and > 5 µM.
On to `Cc1ccc(CNCC2(F)CCN(C(=O)c3ccco3)CC2)nc1` [Example E31, [4-Fluoro-4-[[(5-methylpyridin-2-ylmethyl)amino]methyl]piperidin-1-yl]-furan-2-yl-methanone], for which the inhibition constant (Ki) in assay [1] was > 5 µM; in assay [2] (setting [8]), 0.05 to 0.5 µM; in assay [3] (setting [9]), > 5 µM; in assay [4] (setting [10]), > 5 µM; in assay [5] (setting [11]), > 5 µM; in assay [6] (setting [12]) it was > 5 µM. In addition, the Ki in assay [7] (setting [13]) was > 5 µM.
Consider `Cc1ccc(CNCC2(F)CCN(C(=O)c3cc4ccsc4s3)CC2)nc1` [Example E27, [4-Fluoro-4-[[(5-methylpyridin-2-ylmethyl)amino]methyl]piperidin-1-yl]-thieno[2,3-b]thien-2-yl-methanone], for which the Ki in assay [1] was 0.501 to 5 µM; in assay [2] (setting [8]), < 0.05 µM; in assay [3] (setting [9]), > 5 µM; in assay [4] (setting [10]), > 5 µM; in assay [5] (setting [11]), > 5 µM; in assay [6] (setting [12]), 0.05 to 0.5 µM. Also, the Ki in assay [7] (setting [13]) was > 5 µM.
On to `COc1cscc1C(=O)N1CCC(F)(CNCc2ccc(C)cn2)CC1` [Example E20, [4-Fluoro-4-[[(5-mothylpyridin-2-ylmothyl)amino]methyl]piperidin-1-yl]-4-methoxythien-3-yl-methanone], for which the inhibition constant (Ki) in assay [1] was > 5 µM; in assay [2] (setting [8]) it was 0.05 to 0.5 µM; in assay [3], > 5 µM; in assay [4] (setting [10]), > 5 µM; in assay [5] (setting [11]) it was > 5 µM; in assay [6] (setting [12]) it was 0.501 to 5 µM. Further, the Ki in assay [7] (setting [13]) is > 5 µM.
For `Cc1ccc(CNCC2(F)CCN(C(=O)c3cc4ccccc4s3)CC2)nc1` [Example E23, Benzo[b]thien-2-yl-[4-fluoro-4-[[(5-methyl-pyridin-2-ylmethyl)amino]methyl]-piperidin-1-yl]-methanone], the Ki in assay [1] was 0.501 to 5 µM; in assay [2] (setting [8]) it was 0.05 to 0.5 µM; in assay [3] (setting [9]) it was > 5 µM; in assay [4] (setting [10]) it was > 5 µM; in assay [5] (setting [11]), > 5 µM; in assay [6] (setting [12]), 0.501 to 5 µM. The Ki in assay [7] (setting [13]) was > 5 µM.
Consider `Cc1ccc(CNCC2(F)CCN(C(=O)c3cc4sccc4s3)CC2)nc1` [Example E26, [4-Fluoro-4-[[(5-methylpyridin-2-ylmethyl)amino]methyl]piperidin-1-yl]-thieno[3,2-b]thien-2-yl-mothanone], for which the Ki in assay [1] is 0.501 to 5 µM; in assay [2] (setting [8]), < 0.05 µM; in assay [3], > 5 µM; in assay [4] (setting [10]) it was > 5 µM; in assay [5] (setting [11]), > 5 µM; in assay [6] (setting [12]) it was 0.501 to 5 µM. The Ki in assay [7] (setting [13]) was > 5 µM.
As to “[4-Fluoro-4-[[(5-methylpyridin-2-ylmethyl)amino]methyl]piperidin-1-yl]-indol-2-yl-methanone [Example E41]”, the Ki in assay [1] is 0.501 to 5 µM; in assay [2] (setting [8]) it was 0.05 to 0.5 µM; in assay [3] (setting [9]) it was > 5 µM; in assay [4] (setting [10]), 0.501 to 5 µM; in assay [5] (setting [11]), > 5 µM; in assay [6] (setting [12]), 0.501 to 5 µM. In addition, the Ki in assay [7] (setting [13]) was > 5 µM.
As for `Cc1ccc(CNCC2(F)CCN(C(=O)c3ccc[nH]3)CC2)nc1` [Example E37, [4-Fluoro-4-[[(5-methylpyridin-2-ylmethyl)amino]methyl]piperidin-1-yl]-pyrrol-2-yl-methanone], the Ki in assay [2] (setting [8]) was 0.501 to 5 µM; in assay [3] (setting [9]), > 5 µM.
In the case of `Cc1ccc(CNCC2(F)CCN(C(=O)c3cc[nH]n3)CC2)nc1` [Example E38], the Ki in assay [2] (setting [8]) is 0.501 to 5 µM; in assay [3], > 5 µM.
Regarding `Cc1ccc(CNCC2(F)CCN(C(=O)c3ccc(F)s3)CC2)nc1` [Example E2], the Ki in assay [2] (setting [8]) is < 0.05 µM; in assay [3], > 5 µM.
Regarding `Cc1ccc(CNCC2(F)CCN(C(=O)c3coc4ccccc34)CC2)nc1` [Example E36], the inhibitory constant (Ki) in assay [2] (read-out: Ki 5-HT1a, porcine cortex membranes, mean of two to five experiments in triplicate) was < 0.05 µM; in assay [4] (read-out: Ki D3, CHO cell membranes, mean of two to five experiments in triplicate) it was > 5 µM; in assay [5] (read-out: Ki D1, porcine striatum membranes, mean of two to five experiments in triplicate), > 5 µM; in assay [6] (read-out: Ki D4.4, CHO cell membranes, mean of two to five experiments in triplicate), 0.501 to 5 µM; in assay [7] (read-out: Ki D2; CHO cell membranes, [3H]spiperone; mean of two to five experiments in triplicate), > 5 µM.

These data come from EP2058306A1, “Heteroaryl-substituted 2-pyridinyl-methylamine derivatives” (SCHWARZ PHARMA AG, priority 2007, dated 2009).
